Test results as given in article PMC8856110, “Comparative chemical and biological hydrolytic stability of homologous esters and isosteres” (Journal of Enzyme Inhibition and Medicinal Chemistry, 2022).
Like-named read-outs stand apart in the source and are kept apart here.

Tests used:
[1] = Hydrolytic study using rat liver microsomes; assay type: in vitro ADME; settings: male, Wistar, 1 mg/mL microsomal fraction, absence of cofactor, 37 °C, read-out: Hydrolysis t1/2 Rat liver microsomes
Description: Rat liver microsomes were obtained from male Wistar rats (280–330 g) and prepared according to the methodology described by Cabrera and co-workers[17]. After obtaining rat liver microsomes, the protein quantification was done by a bicinchoninic acid assay using a commercial protein determination kit obtained from Sigma-Aldrich (St Louis MO, USA)[18]. […] The reaction was stopped by adding organic solvents at ice-cold temperature (i.e., 500 µL of methanol and 500 µL of acetonitrile).
(ii) Compounds 8–9: 0–15 min. A:B 40:60 v/v. (iii) Compounds 13–16: 0–4 min. […] A:B 60:40 v/v.
Given those results, we decided to study the comparative metabolic behaviour of the esters 1 and 2, 5 and 6, 11 and 12, using another biological matrix rich in carboxylesterases. Therefore, the kinetics of hydrolysis was established using rat liver microsomes in the absence of cofactor in order to prevent eventual oxidative metabolic reactions catalysed by CYP450 or FMO.

carboxylesterase (CES) = assay: Enzymatic inhibition study in rat plasma with CES inhibitor bis(p-nitrophenyl)phosphate; assay type: in vitro ADME; settings: bis(p-nitrophenyl)phosphate 1, 10, 100 µM; ester 500 µM, 90 min
Description: The inhibitor was pre-incubated for 30 min at 37 °C, with (i) plasma (ii) rat liver microsomes and phosphate buffer pH 7,4 (final volume of 250 µL). […] The mixture was incubated again at 37 °C for 90 min under agitation. The analysis was performed by the same HPLC method used in the previous experiments. […] Data were expressed as percentages of inhibition.

[2] = Rat plasma hydrolytic study; settings: for half-life at 500 μM: male, Wistar, rat, rat plasma (80% in phosphate buffer), pH 7.4
Description: (§1) Rat plasma was obtained from male Wistar rats’ blood and diluted in phosphate buffer (pH 7.4) to obtain a final plasma concentration of 80%. […] The sample was incubated at 37 °C for 5, 10, 20, and 30 min, under stirring. At the end of the incubation time, the reaction was stopped by adding methanol (500 μL) and acetonitrile (500 μL), both in ice-cold temperature. The mixture was centrifuged at 13.500 rpm for 15 min at 4 °C. The organic phase was transferred to a microtube, and the IS (1.25 µL) was added. Finally, the samples were filtered through PVDF syringe filters (Millex®: 0.22 µm pore size) and analysed by HPLC[16].
(§2) A Shimadzu Prominence HPLC system (Shimadzu, Tokyo, Japan) consisting of a UV/VIS Photodiode Array Detector (SPD-M20A), a binary pump (LC-20AD), a vacuum degasser (DGU-20A5), and an autosampler (SIL-20A) was used for analyses. The Chromatographic separation was achieved using a reversed phase (Kromasil® C18 HPLC Column: particle size 5 µm, L × I.D. 250 × 4.6 mm) preceded by a guard column (Phenomenex® C18: 4 × 3 mm). The column was held at ambient temperature (22 ± 2 °C). For the selection of the wavelength, the diode array-detector was used. To avoid interference with impurities, the longest suitable wavelength was chosen to evaluate the chromatograms, which allowed for sensitivity. The mobile phase was a combination of eluent A (0.1% formic acid) and eluent B (acetonitrile). Three mobile phases were carried out using an injection volume of 20 µL and an flow rate set at 1.0 ml/min. […] A:B 40:60 v/v. […] A:B 90:10 v/v; 4–8 min. linear-gradient from 90% A to A:B 60:40 v/v; 8–12 min. A:B 60:40 v/v.
(§3) The biologic hydrolysis of the esters 1–12 was carried out using rat plasma and rat liver microsomes. Each compound's half-life (t1/2) was calculated using the expression t1/2 = 0.693/a, as previously described.

[3] = Base-catalysed (alkaline) hydrolysis with LiOH in THF:H2O; settings: for half-life at 2.5 g/L: LiOH in tetrahydrofuran/water (6:4)
Description: (§4) The reaction was started by adding LiOH (24 μL, 1 mol/l), and the mixture was incubated at 37 °C for 5, 10, 20, and 30 min, under stirring in a water bath. At the end of the incubation period, an aliquot (20 μL) was transferred to a new tube, and subsequently, HCl (0.3 μL, 10% v:v) was added. The pH of the sample was checked to verify neutralisation, and acetonitrile (480 μL) was added. The final concentrations of all compounds in the solution were 2,5 g/L. Finally, the samples were filtered through PVDF syringe filters (Millex®: 0.22 µm pore size) and analysed by HPLC[15].
as §2
(§5) The time in minutes required to reduce half the initial amount of each ester compound (i.e., half-life - t1/2) was calculated using the expression t1/2 = 0.693/a, with "a" being the slope of the natural log of concentration of the sample vs. the incubation time.

[4] = buffer
Description: as §4, §2, §5

[5] = pH 7.4
Description: as §1, §2, §3

[6] = Hydrolysis t1/2 Alkaline, LiOH, THF:H2O, 37 °C

Compound: CCOC(=O)c1ccccc1 [Compound 2, ethyl benzoate]
- half-life [1]: 12 min
- Metabolism in rat plasma in the presence of the CES inhibitor (carboxylesterase (CES)): strongly reduced
- half-life at 500 μM [2]: 17 min
- half-life at 2.5 g/L [3, 6]: 15 min
- Hydrolysis t1/2 Alkaline ([3]; LiOH, THF:H2O, 37 °C): 14 min

Compound: O=C(OCc1ccccc1)c1ccccc1 [Compound 6, benzyl benzoate]
- half-life [1]: 13 min
- half-life at 500 μM [2]: 12 min
- half-life at 2.5 g/L [3]: 16 min

Compound: COC(=O)c1ccc(N)cc1 [Compound 14, methyl 4-aminobenzoate]
- half-life at 500 μM [2]: 27 min

Compound: CC(=O)Oc1ccccc1 [Compound 9]
- half-life at 500 μM [2]: 19 min
- half-life at 2.5 g/L [3, 6]: 58 min

Compound: CCCCOC(=O)c1ccccc1 [Compound 4, n-butyl benzoate]
- half-life at 500 μM [2]: 10 min
- half-life at 2.5 g/L [3]: 21 min

Compound: COC(=O)c1ncn2c1CN(C)C(=O)c1cc(F)ccc1-2 [Compound 16, methyl 8-fluoro-5-methyl-6-oxo-4H-imidazo[1,5-a][1,4]benzodiazepine-3-carboxylate]
- half-life at 500 μM [2]: 238 min

Compound: methyl 2-naphthoate [Compound 7]
- Hydrolysis t1/2 Alkaline [4]: 29 min
- Hydrolysis t1/2 Rat plasma [5]: 17 min

Compound: CCOC(=O)c1ccccc1Br [Compound 10, ethyl 2-bromobenzoate]
- half-life at 500 μM [2]: 10 min
- half-life at 2.5 g/L [3]: 15 min

Compound: CCCOC(=O)c1ccccc1 [Compound 3, n-propyl benzoate]
- half-life at 500 μM [2]: 10 min
- half-life at 2.5 g/L [3]: 19 min

Compound: CCOC(=O)c1ccc(Br)cc1 [Compound 12, ethyl 4-bromobenzoate]
- half-life [1]: 10 min
- half-life at 500 μM [2]: 12 min
- half-life at 2.5 g/L [3]: 12 min

Compound: O=C(Oc1ccccc1)c1ccccc1 [Compound 5, phenyl benzoate]
- half-life [1]: 10 min
- half-life at 500 μM [2]: 7 min
- half-life at 2.5 g/L [3]: 11 min

Compound: CCOC(=O)c1ccc(N)cc1 [Compound 13, ethyl 4-aminobenzoate, reference compound]
- half-life at 500 μM [2]: 13 min

Compound: CCOC(=O)c1cccc(Br)c1 [Compound 11, ethyl 3-bromobenzoate]
- half-life [1]: 12 min
- half-life at 500 μM [2]: 11 min
- half-life at 2.5 g/L [3]: 25 min

Compound: COC(=O)Cc1ccccc1 [Compound 8, methyl 2-phenylacetate]
- half-life at 500 μM [2]: 3 min
- Loss of plasma metabolic stability relative to ester 1 ([2]; rat plasma, versus ester 1): twelve times less stable
- half-life at 2.5 g/L [3, 6]: 39 min

Compound: COC(=O)c1ccccc1 [Compound 1, methyl benzoate]
- half-life [1]: 15 min
- half-life at 500 μM [2]: 36 min
- half-life at 2.5 g/L [3]: 14 min

Compound: CCOC(=O)c1ncn2c1CN(C)C(=O)c1cc(F)ccc1-2 [Compound 15, flumazenil, reference compound]
- half-life at 500 μM [2]: 89 min
- Times less stable to plasma hydrolysis than methyl homologous 16 ([2]; rat plasma, versus 16): 2.7 times
